Test results taken from US20100075368A1, “Media for recovery of microorganism in the presence of antibiotics” (Millipore Corporation, priority 2004, published 2010).

Key:
Type in all cases: cell-based
[1] = system: S. aureus (ATCC 6538); assay: Direct inoculation of SCDB broth tubes, growth in presence of antibiotic; conditions: ciprofloxacin 100 μg/mL in SCDB, 200 cfu
Description: Test tubes containing SCDB media in the presence or absence of magnesium cation or ciprofloxacin antibiotic were inoculated with 200 colony forming units (cfu) of S. aureus (ATCC 6538). Sample A was used with a ciprofloxacin sample (100 μg/mL) and contained no divalent cation constituent. B was used with ciprofloxacin (100 μg/mL) and contained 0.5 M magnesium cation. C was used with a control and contained 0.5M of the same divalent cation of B. D was used with a control and contained no divalent cation.

[2] = system: S. aureus (ATCC 6538); assay: Simulated air monitoring: antibiotic disc zone of inhibition on SCDA; conditions: Staphylococcus aureus, disc: ofloxacin 5 ug
Description: (§1) One method of monitoring air in an antibiotic manufacturing plant is to impact air onto an agar surface collecting both microorganisms and antibiotic on the agar surface. This test was simulated by spreading microorganisms over an agar surface containing varying amounts of magnesium cation and then placing disks containing antibiotics onto the agar surface. The zone of inhibition around each disk was measured to give an indication of the ability of the medium to neutralize the effect of the antibiotic (method followed is similar to the susceptibility disc test used in clinical microbiology). S. aureus (ATCC 6538), P. aeruginosa (ATCC 9027) or E. coli (ATCC 25922) were spread on the agar surface of SCDA containing 0.1M, 0.2M, 0.3M, 0.4M or 0.5M magnesium cation. Discs impregnated with a known amount of antibiotic were then placed onto the bacteria on the agar plate. Plates were incubated and the zone of inhibition of bacterial growth was measured.

[3] = system: P. aeruginosa (ATCC 9027); assay: as above; conditions: Pseudomonas aeruginosa, disc: ofloxacin 5 ug
Description: as §1

[4] = system: E. coli (ATCC 25922); assay: as above; conditions: Escherichia coli, disc: ofloxacin 5 ug
Description: as §1

[5] = ATCC6538, 0.0 M cation in SCDA, streptomycin 10 ug, doxycycline 30 ug
[6] = ATCC6538, 0.1M magnesium cation in SCDA, streptomycin 10 ug, doxycycline 30 ug
[7] = ATCC6538, 0.3M magnesium cation in SCDA, streptomycin 10 ug, doxycycline 30 ug
[8] = ATCC6538, 0.5M magnesium cation in SCDA, streptomycin 10 ug, doxycycline 30 ug
[9] = ATCC9027, 0.0 M cation in SCDA, streptomycin 10 ug, doxycycline 30 ug
[10] = ATCC9027, 0.1M magnesium cation in SCDA, streptomycin 10 ug, doxycycline 30 ug
[11] = ATCC9027, 0.3M magnesium cation in SCDA, streptomycin 10 ug, doxycycline 30 ug
[12] = ATCC9027, 0.5M magnesium cation in SCDA, streptomycin 10 ug, doxycycline 30 ug
[13] = ATCC25922, 0.0 M cation in SCDA, streptomycin 10 ug, doxycycline 30 ug
[14] = ATCC25922, 0.1M magnesium cation in SCDA, streptomycin 10 ug, doxycycline 30 ug
[15] = ATCC25922, 0.3M magnesium cation in SCDA, streptomycin 10 ug, doxycycline 30 ug
[16] = ATCC25922, 0.5M magnesium cation in SCDA, streptomycin 10 ug, doxycycline 30 ug

Compound: O=C(O)c1cn(C2CC2)c2cc(N3CCNCC3)c(F)cc2c1=O [Ciprofloxacin, ciprofloxacin]
- Result (growth of microorganism) ([1]; 0.5 M magnesium cation added to broth): Growth
- Result (growth of microorganism) ([1]; divalent cation added to broth: None): No growth

Compound: C[C@H]1c2cccc(O)c2C(=O)C2=C(O)[C@]3(O)C(=O)C(C(N)=O)=C(O)[C@@H](N(C)C)[C@@H]3[C@@H](O)[C@@H]21 [Doxycycline, doxycycline]
- zone of inhibition at 30 µg/disc [2, 5]: 25 mm
- zone of inhibition at 30 µg/disc [2, 6]: 13 mm
- zone of inhibition at 30 µg/disc [2, 7]: 11 mm
- zone of inhibition at 30 µg/disc [2, 8]: 13 mm
- zone of inhibition at 30 µg/disc [3, 9]: 6 mm
- zone of inhibition at 30 µg/disc [3, 10]: 6 mm
- zone of inhibition at 30 µg/disc [3, 11]: 6 mm
- zone of inhibition at 30 µg/disc [3, 12]: 6 mm
- zone of inhibition at 30 µg/disc [4, 13]: 18 mm
- zone of inhibition at 30 µg/disc [4, 14]: 6 mm
- zone of inhibition at 30 µg/disc [4, 15]: 6 mm
- zone of inhibition at 30 µg/disc [4, 16]: 6 mm

Compound: CC1COc2c(N3CCN(C)CC3)c(F)cc3c(=O)c(C(=O)O)cn1c23 (centres unmarked) [Ofloxacin, ofloxacin]
- zone of inhibition at 5 µg/disc [2, 5]: 23 mm
- zone of inhibition at 5 µg/disc [2, 6]: 11 mm
- zone of inhibition at 5 µg/disc ([2]; ATCC6538, 0.2M magnesium cation in SCDA): 8 mm
- zone of inhibition at 5 µg/disc [2, 7]: 6 mm
- zone of inhibition at 5 µg/disc ([2]; ATCC6538, 0.4M magnesium cation in SCDA): 7 mm
- zone of inhibition at 5 µg/disc [2, 8]: 6 mm
- zone of inhibition at 5 µg/disc [3, 9]: 20 mm
- zone of inhibition at 5 µg/disc [3, 10]: 6 mm
- zone of inhibition at 5 µg/disc ([3]; ATCC9027, 0.2M magnesium cation in SCDA): 6 mm
- zone of inhibition at 5 µg/disc [3, 11]: 6 mm
- zone of inhibition at 5 µg/disc ([3]; ATCC9027, 0.4M magnesium cation in SCDA): 6 mm
- zone of inhibition at 5 µg/disc [3, 12]: 6 mm
- zone of inhibition at 5 µg/disc [4, 13]: 26 mm
- zone of inhibition at 5 µg/disc [4, 14]: 13 mm
- zone of inhibition at 5 µg/disc ([4]; ATCC25922, 0.2M magnesium cation in SCDA): 13 mm
- zone of inhibition at 5 µg/disc [4, 15]: 13 mm
- zone of inhibition at 5 µg/disc ([4]; ATCC25922, 0.4M magnesium cation in SCDA): 12 mm
- zone of inhibition at 5 µg/disc [4, 16]: 12 mm

Compound: [H]/N=C(/N)N[C@H]1[C@H](O)[C@@H](O)[C@H](O[C@@H]2O[C@@H](C)[C@](O)(C=O)[C@H]2O[C@@H]2O[C@@H](CO)[C@H](O)[C@@H](O)[C@@H]2NC)[C@@H](N/C(N)=N\[H])[C@@H]1O [Streptomycin, streptomycin]
- zone of inhibition at 10 µg/disc [2, 5]: 17 mm
- zone of inhibition at 10 µg/disc [2, 6]: 12 mm
- zone of inhibition at 10 µg/disc [2, 7]: 7 mm
- zone of inhibition at 10 µg/disc [2, 8]: 8 mm
- zone of inhibition at 10 µg/disc [3, 9]: 11 mm
- zone of inhibition at 10 µg/disc [3, 10]: 6 mm
- zone of inhibition at 10 µg/disc [3, 11]: 6 mm
- zone of inhibition at 10 µg/disc [3, 12]: 6 mm
- zone of inhibition at 10 µg/disc [4, 13]: 14 mm
- zone of inhibition at 10 µg/disc [4, 14]: 12 mm
- zone of inhibition at 10 µg/disc [4, 15]: 9 mm
- zone of inhibition at 10 µg/disc [4, 16]: 6 mm
